According to article PMC3049593 (British Journal of Cancer, 2011):

How the values were obtained:
[1] = plasma pharmacokinetics of PG545 (LC-MS/MS) in LL/2 tumour-bearing mice; type: in vivo; details: for AUC0−t / Cmax / Tmax / t½: plasma
Description: (Applied Biosystems) preceded by a Spark Symbiosis Direct On-line Solid Phase Extraction system. Briefly, using a deep-well 96-well plate, 100 µL plasma was mixed with 10 µL standard solution (or water for unknowns) plus 10 µL internal standard solution (PG562 at 100 µg/mL (deionised water for double blank)).This was then mixed for at least 1 min (Ratek Platform Shaker) and incubated at room temperature for 20 mins prior to addition of 25 µL SDS solution (10 mg SDS in 1 mL deionised water) + 75 µL CHAPS solution (50 mg CHAPS in 1 mL deionised water) and 50 µL Proteinase K solution (10 mg Proteinase K in 1 mL 5 mM CaCl2). Following a mixing step this was incubated at 37°C for 2.5 hours prior to addition of 250 µL deionised water and placed into the Spark Symbiosis system.
The Tmax and Cmax on each sampling day were determined for each dose level by visual inspection of the mean data. The AUC0-t was calculated using the trapezoidal method and the plasma concentration t½ was estimated based on linear regression of the natural log of the plasma concentration that constituted the terminal phase of the concentration-time

[2] = tested on: Lewis Lung Carcinoma (LL/2) tumour angiogenesis; experiment: CD31 staining of primary LL/2 tumours; type: in vivo, mice
Description: Angiogenesis in vivo was evaluated using the Angiosponge model in which subcutaneously implanted, agarose-captured FGF2 gelfoam sterile sponges (Pfizer, West Ryde, Australia) induces vascularisation over a 10-day period responsive to angiogenesis inhibition as determined by the number of vessels with identifiable lumen that stained positive for CD31/PECAM-1, an antigen present specifically on endothelial cells ([McCarty et al, 2002]). PG545 was administered s.c. on the flank distal to the AngioSponge implant. This method was also used to examine five medium-sized primary tumours from each group of Lewis Lung Carcinoma (LL/2)-bearing mice.
In the orthotopic Hep3b2.1-7 human liver cancer model, treatment of mice (n=10) began 14 days after inoculation of 2.5 × 10^6 cells. […] To initiate tumour xenografts, MDA-MB-231, PC3, Cal27 and HepG2 cells were injected s.c. into nude mice (n=8) at 4, 5, 2 and 2 × 10^7 cells ml^−1, respectively. […] In the B16F0 lung metastasis model, 2 × 10^5 cells were injected via the tail vein of C57Bl6 mice (n=8). […] Surface lung macrometastases were counted for each group (n=9) upon study termination. […] Solid tumours were measured in two dimensions (length and width) and the tumour volume (cm^3) was calculated using the equation: V=length × width^2 × π/6. The anti-tumour activity was expressed as percent tumour growth inhibition (%TGI). […]

Compound: CC(C)CCC[C@@H](C)[C@H]1CCC2C3CCC4C[C@@H](O[C@@H]5O[C@H](COS(=O)(=O)[O-])[C@@H](O[C@H]6O[C@H](COS(=O)(=O)[O-])[C@@H](O[C@H]7O[C@H](COS(=O)(=O)[O-])[C@@H](O[C@H]8O[C@H](COS(=O)(=O)[O-])[C@@H](OS(=O)(=O)[O-])[C@H](OS(=O)(=O)[O-])[C@H]8OS(=O)(=O)[O-])[C@H](OS(=O)(=O)[O-])[C@H]7OS(=O)(=O)[O-])[C@H](OS(=O)(=O)[O-])[C@H]6OS(=O)(=O)[O-])[C@H](OS(=O)(=O)[O-])[C@H]5OS(=O)(=O)[O-])CC[C@]4(C)C3CC[C@@]21C.[Na+].[Na+].[Na+].[Na+].[Na+].[Na+].[Na+].[Na+].[Na+].[Na+].[Na+].[Na+].[Na+] (stereo partly drawn) [PG545]
- start of efficacious plasma concentration range ([1]; LL/2 model): ~20 µg/mL
- AUC0−t ([1]; week 1, 20 mg kg^−1): 687 µg·h/mL
- Cmax ([1]; week 1, 20 mg kg^−1): 23 µg/mL
- Tmax ([1]; week 1, 20 mg kg^−1): 5 h
- t½ ([1]; week 1, 20 mg kg^−1): 38 h
- AUC0−t ([1]; week 1, 40 mg kg^−1): 1713 µg·h/mL
- Cmax ([1]; week 1, 40 mg kg^−1): 55 µg/mL
- Tmax ([1]; week 1, 40 mg kg^−1): 3 h
- t½ ([1]; week 1, 40 mg kg^−1): 32 h
- AUC0−t ([1]; week 1, 60 mg kg^−1): 2666 µg·h/mL
- Cmax ([1]; week 1, 60 mg kg^−1): 79 µg/mL
- Tmax ([1]; week 1, 60 mg kg^−1): 5 h
- t½ ([1]; week 1, 60 mg kg^−1): 39 h
- AUC0−t ([1]; week 2, 20 mg kg^−1): 663 µg·h/mL
- Cmax ([1]; week 2, 20 mg kg^−1): 27 µg/mL
- Tmax ([1]; week 2, 20 mg kg^−1): 4 h
- t½ ([1]; week 2, 20 mg kg^−1): 31 h
- AUC0−t ([1]; week 2, 40 mg kg^−1): 1781 µg·h/mL
- Cmax ([1]; week 2, 40 mg kg^−1): 71 µg/mL
- Tmax ([1]; week 2, 40 mg kg^−1): 4 h
- t½ ([1]; week 2, 40 mg kg^−1): 28 h
- AUC0−t ([1]; week 2, 60 mg kg^−1): 3056 µg·h/mL
- Cmax ([1]; week 2, 60 mg kg^−1): 94 µg/mL
- Tmax ([1]; week 2, 60 mg kg^−1): 4 h
- t½ ([1]; week 2, 60 mg kg^−1): 35 h
- decrease in CD31 endothelial staining in tumours ([2]; 20 mg kg^−1 once-weekly s.c.): 30%
- decrease in CD31 endothelial staining in tumours ([2]; 40 mg kg^−1 once-weekly s.c.): 22%
